Values after ≈ are worked out from the molar mass of the structure shown. Read-outs that look alike come from different tables or passages of the source.
How the values were obtained:
Staphyloccus aureus X1.1 = test: MIC, standard agar-dilution assay (Table IX); format: cell-based, Staphylococcus aureus; settings: Staphylococcus aureus, read-out: MIC
[1] = test system: Staphylococcus aureus V41; test: MIC, standard agar-dilution assay (Table IX); format: cell-based; settings: Staphylococcus aureus V41, Penicillin-resistant strain, read-out: MIC
[2] = test system: Staphylococcus aureus X400; test: MIC, standard agar-dilution assay (Table IX); format: cell-based; settings: Staphylococcus aureus X400, Methicillin-resistant strain, read-out: MIC
[3] = test system: Staphylococcus aureus S13E; test: MIC, standard agar-dilution assay (Table IX); format: cell-based; settings: Staphylococcus aureus, S13E
[4] = test system: Staphylococcus epidermidis EPI1; test: MIC, standard agar-dilution assay (Table IX); format: cell-based; settings: Staphylococcus epidermidis EPI1; agar-dilution; read-out: MIC
[5] = test system: Staphylococcus epidermidis 222; test: MIC, standard agar-dilution assay (Table IX); format: cell-based; settings: read-out: MIC
[6] = test system: Streptococcus pyogenes C203; test: MIC, standard agar-dilution assay (Table IX); format: cell-based; settings: read-out: MIC
[7] = test system: Streptococcus pneumoniae Park I; test: MIC, standard agar-dilution assay (Table IX); format: cell-based; settings: Streptococcus pneumoniae Park I; agar-dilution; read-out: MIC
[8] = test system: Streptococcus Group D X66; test: MIC, standard agar-dilution assay (Table IX); format: cell-based; settings: read-out: MIC
[9] = test system: Streptococcus Group D 2041; test: MIC, standard agar-dilution assay (Table IX); format: cell-based; settings: GROUPD2041, read-out: MIC
[10] = test system: Haemophilus influenzae C.L.; test: MIC, standard agar-dilution assay (Table IX); format: cell-based; settings: Ampicillin-sensitive strain, read-out: MIC
[11] = test system: Haemophilus influenzae 76; test: MIC, standard agar-dilution assay (Table IX); format: cell-based; settings: Haemophilus influenzae 76, Ampicillin-resistant strain, read-out: MIC
Escherichia coli N10 = test: MIC, standard agar-dilution assay (Table IX); format: cell-based; settings: read-out: MIC
Escherichia coli EC14 = test: MIC, standard agar-dilution assay (Table IX); format: cell-based; settings: read-out: MIC
Escherichia coli TEM = test: MIC, standard agar-dilution assay (Table IX); format: cell-based; settings: read-out: MIC
Klebsiella X26 = test: MIC, standard agar-dilution assay (Table IX); format: cell-based; settings: read-out: MIC
[12] = test system: Mycoplasma gallisepticum 29C; test: MIC, broth-dilution microtiter test (Table X); format: cell-based; settings: Mycoplasmoides gallisepticum, read-out: MIC
Text: (§1) The MIC's in Table X were obtained using conventional broth-dilution microtiter tests.

[13] = test system: Mycoplasma hyopneumoniae S5972; test: MIC, broth-dilution microtiter test (Table X); format: cell-based; settings: Mesomycoplasma hyopneumoniae, read-out: MIC
Text: as §1

Mycoplasma hyorhinis 29E = test: MIC, broth-dilution microtiter test (Table X); format: cell-based; settings: read-out: MIC
Text: as §1

Mycoplasma synoviae 40A = test: MIC, broth-dilution microtiter test (Table X); format: cell-based; settings: Mycoplasmopsis synoviae, read-out: MIC
Text: as §1

[14] = test system: Pasteurella hemolytica 22C; test: MIC, broth-dilution microtiter test (Table X); format: cell-based; settings: read-out: MIC
Text: as §1

[15] = test system: Pasteurella multocida 17E; test: MIC, broth-dilution microtiter test (Table X); format: cell-based; settings: Bovine isolate, read-out: MIC
Text: as §1

[16] = test system: Pasteurella multocida 60A; test: MIC, broth-dilution microtiter test (Table X); format: cell-based; settings: Avian isolate, read-out: MIC
Text: as §1

Staphylococcus aureus = test: MIC, broth-dilution microtiter test (Table X); format: cell-based; settings: read-out: MIC
Text: as §1

Streptococcus sp. 19F = test: MIC, broth-dilution microtiter test (Table X); format: cell-based; settings: read-out: MIC
Text: as §1

Pasteurella multocida [17] = test: Pasteurella infection in one-day-old chicks, subcutaneous administration (Table XII); format: in vivo; settings: Administered subcutaneously, 30 mg/kg × 2, 1 and 4 hours post-challenge
Experimental: (§2) Many of the C-20 modified derivatives of this invention have also shown in vivo antibacterial activity against infections induced by gram-negative bacteria. Tables XII and XIII summarize the results of tests in which illustrative compounds were evaluated against a Pasteurella infection in one-day-old chicks. The compounds were administered parenterally or orally after challenge of the chicks with Pasteurella multocida (0.1 ml of a 10^-4 dilution of a twenty-hour tryptose broth culture of an avian P. multocida given subcutaneously). In these tests, unless indicated otherwise, all non-medicated infected chicks died within 24 hours of Pasteurella challenge. In the tests summarized in Table XII, the compounds were administered by subcutaneous injection at a dosage of 30 mg/kg, 1 and 4 hours post-challenge of the chicks with P. multocida. In the tests summarized in Table XIII the compounds were administered in medicated drinking water (at a level of 2 g/gal) available from 4 to 20 hours prior to challenge of the chicks with P. multocida and during the 3 -day test period.
^a Administered subcutaneously; 30 mg/kg × 2

Pasteurella multocida [18] = test: Pasteurella infection in one-day-old chicks, medicated drinking water (Table XIII); format: in vivo; settings: Administered in the available drinking water at 2 g/gal
Experimental: as §2
^a Administered in the available drinking water at a concentration of […]

[19] = Titratable groups in 66% aqueous DMF (Tables XIV-XVI); format: physicochemical
Text: ^c Run in 66% aqueous DMF
^d Run in 66% aqueous DMF

[20] = test system: Streptococcus pyogenes C203; test: ED50 in mice experimentally infected with S. pyogenes C203 (Table XI); format: in vivo; settings: Streptococcus pyogenes, doses given 1 and 4 hours postinfection, read-out: ED50
How it was run: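 Mice infected with S. pyogenes C203 received two doses of compound, 1 and 4 h post-infection. ED50 is the dose in mg/kg (per dose, ×2) protecting 50% of animals.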

SMILES | MIC (Staphyloccus aureus X1.1) | MIC [1] | MIC [2] | MIC [3] | MIC [4] | MIC [5] | MIC [6] | MIC [7] | MIC [8] | MIC [9] | MIC [10] | MIC [11] | MIC (Escherichia coli N10) | MIC (Escherichia coli EC14) | MIC (Escherichia coli TEM) | MIC (Klebsiella X26) | MIC [12] | MIC [13] | MIC (Mycoplasma hyorhinis 29E) | MIC (Mycoplasma synoviae 40A) | also measured
CCC1OC(=O)CC(O)C(C)C(OC2OC(C)C(O)C(N(C)C)C2O)C(CCN2C3CCCCC3C3CCCCC32)CC(C)C(=O)C=CC(C)=CC1COC1OC(C)C(O)C(OC)C1OC (centres unmarked) [Compound D25, 20-DH-DO-20-(Dodecahydrocarbazol-9-yl) desmycosin] | 0.5 µg/mL (≈ 0.535 µM) | 0.5 µg/mL (≈ 0.535 µM) | 1 µg/mL (≈ 1.07 µM) | 0.5 µg/mL (≈ 0.535 µM) | 0.5 µg/mL (≈ 0.535 µM) | 0.25 µg/mL (≈ 0.267 µM) | 0.25 µg/mL (≈ 0.267 µM) | 0.5 µg/mL (≈ 0.535 µM) | 4 µg/mL (≈ 4.28 µM) | 4 µg/mL (≈ 4.28 µM) | 16 µg/mL (≈ 17.1 µM) | 8 µg/mL (≈ 8.55 µM) | 128 µg/mL (≈ 137 µM) | 128 µg/mL (≈ 137 µM) | 32 µg/mL (≈ 34.2 µM) | 128 µg/mL (≈ 137 µM) | 0.39 µg/mL (≈ 0.417 µM) | 0.39 µg/mL (≈ 0.417 µM) | 12.5 µg/mL (≈ 13.4 µM) | 0.097 µg/mL (≈ 0.104 µM) | MIC [14]: 3.12 µg/mL (≈ 3.34 µM); MIC [15]: 12.5 µg/mL (≈ 13.4 µM); MIC [16]: 12.5 µg/mL (≈ 13.4 µM); MIC (Staphylococcus aureus): 3.12 µg/mL (≈ 3.34 µM); MIC (Streptococcus sp. 19F): 3.12 µg/mL (≈ 3.34 µM); Number of Deaths/Number Treated (Pasteurella multocida [17]): 0/10; Number of Deaths/Number Treated (Pasteurella multocida [18]): 7/10; pKa ([19]; Titratable groups): 9.95; pKa ([19]; Titratable groups (first value)): 7.95
CCC1OC(=O)CC(O)C(C)C(OC2OC(C)C(O)C(N(C)C)C2O)C(CCN2CC=CCC2)CC(C)C(=O)C=CC(C)=CC1COC1OC(C)C(O)C(OC)C1OC (centres unmarked) [Compound D22, 20-DH-DO-20-(1,2,3,6-Tetrahydropyridin-1-yl)desmycosin] | 1 µg/mL (≈ 1.19 µM) | 0.5 µg/mL (≈ 0.596 µM) | 1 µg/mL (≈ 1.19 µM) | 0.5 µg/mL (≈ 0.596 µM) | 0.5 µg/mL (≈ 0.596 µM) | 0.25 µg/mL (≈ 0.298 µM) | 0.25 µg/mL (≈ 0.298 µM) | 1 µg/mL (≈ 1.19 µM) | 8 µg/mL (≈ 9.53 µM) | 8 µg/mL (≈ 9.53 µM) | 16 µg/mL (≈ 19.1 µM) | 8 µg/mL (≈ 9.53 µM) | > 128 µg/mL | > 128 µg/mL | 64 µg/mL (≈ 76.3 µM) | 64 µg/mL (≈ 76.3 µM) | 0.78 µg/mL (≈ 0.93 µM) | 1.56 µg/mL (≈ 1.86 µM) | 25 µg/mL (≈ 29.8 µM) | 0.78 µg/mL (≈ 0.93 µM) | MIC [14]: 3.12 µg/mL (≈ 3.72 µM); MIC [15]: 12.5 µg/mL (≈ 14.9 µM); MIC [16]: 12.5 µg/mL (≈ 14.9 µM); MIC (Staphylococcus aureus): 1.56 µg/mL (≈ 1.86 µM); MIC (Streptococcus sp. 19F): 3.12 µg/mL (≈ 3.72 µM); ED50 ([20]; C203, Oral): 40 mg/kg; ED50 ([20]; C203, sc, Subcutaneous): 0.8 mg/kg; Number of Deaths/Number Treated (Pasteurella multocida [17]): 0/10; Number of Deaths/Number Treated (Pasteurella multocida [18]): 5/10
CCC1OC(=O)CC(O)C(C)C(OC2OC(C)C(O)C(N(C)C)C2O)C(CCN2CCC3(CC2)OCCO3)CC(C)C(=O)C=CC(C)=CC1COC1OC(C)C(O)C(OC)C1OC (centres unmarked) [Compound D28, 20-DH-DO-20-[4-(ethylenedioxy)piperidin-1-yl]desmycosin] | 2 µg/mL (≈ 2.22 µM) | 2 µg/mL (≈ 2.22 µM) | 4 µg/mL (≈ 4.45 µM) | 2 µg/mL (≈ 2.22 µM) | 2 µg/mL (≈ 2.22 µM) | 1 µg/mL (≈ 1.11 µM) | 0.5 µg/mL (≈ 0.556 µM) | 2 µg/mL (≈ 2.22 µM) | 8 µg/mL (≈ 8.9 µM) | 8 µg/mL (≈ 8.9 µM) | 32 µg/mL (≈ 35.6 µM) | 32 µg/mL (≈ 35.6 µM) | > 128 µg/mL | > 128 µg/mL | 64 µg/mL (≈ 71.2 µM) | 64 µg/mL (≈ 71.2 µM) | 0.097 µg/mL (≈ 0.108 µM) | 1.56 µg/mL (≈ 1.74 µM) | 25 µg/mL (≈ 27.8 µM) | 0.195 µg/mL (≈ 0.217 µM) | MIC [14]: 25 µg/mL (≈ 27.8 µM); MIC [15]: 6.25 µg/mL (≈ 6.95 µM); MIC [16]: 25 µg/mL (≈ 27.8 µM); MIC (Staphylococcus aureus): 3.12 µg/mL (≈ 3.47 µM); MIC (Streptococcus sp. 19F): 3.12 µg/mL (≈ 3.47 µM); ED50 ([20]; C203, Oral): 77 mg/kg; ED50 ([20]; C203, sc, Subcutaneous): 0.75 mg/kg; Number of Deaths/Number Treated (Pasteurella multocida [17]): 0/10; Number of Deaths/Number Treated (Pasteurella multocida [18]): 7/10
CCC1OC(=O)CC(O)C(C)C(OC2OC(C)C(O)C(N(C)C)C2O)C(CCN2CCCc3ccccc32)CC(C)C(=O)C=CC(C)=CC1COC1OC(C)C(O)C(OC)C1OC (centres unmarked) [Compound D11, 20-DH-DO-20-(1,2,3,4-Tetrahydroquinolin-1-yl)desmycosin] | 0.5 µg/mL (≈ 0.562 µM) | 0.5 µg/mL (≈ 0.562 µM) | 0.5 µg/mL (≈ 0.562 µM) | 0.5 µg/mL (≈ 0.562 µM) | 0.5 µg/mL (≈ 0.562 µM) | 0.25 µg/mL (≈ 0.281 µM) | 0.5 µg/mL (≈ 0.562 µM) | 2 µg/mL (≈ 2.25 µM) | 8 µg/mL (≈ 9 µM) | 8 µg/mL (≈ 9 µM) | 64 µg/mL (≈ 72 µM) | 8 µg/mL (≈ 9 µM) | > 128 µg/mL | > 128 µg/mL | > 128 µg/mL | > 128 µg/mL | ≤ 0.048 µg/mL | 1.56 µg/mL (≈ 1.75 µM) | 6.25 µg/mL (≈ 7.03 µM) | 0.78 µg/mL (≈ 0.877 µM) | MIC [14]: 25 µg/mL (≈ 28.1 µM); MIC [15]: 12.5 µg/mL (≈ 14.1 µM); MIC [16]: 50 µg/mL (≈ 56.2 µM); MIC (Staphylococcus aureus): 1.56 µg/mL (≈ 1.75 µM); MIC (Streptococcus sp. 19F): 3.12 µg/mL (≈ 3.51 µM); ED50 ([20]; C203, Oral): 19 mg/kg; ED50 ([20]; C203, sc, Subcutaneous): 7.5 mg/kg; Number of Deaths/Number Treated (Pasteurella multocida [17]): 10/10; Number of Deaths/Number Treated (Pasteurella multocida [18]): 8/10

Reference: patent publication US4820695A, “C-20-dihydro-deoxy-(cyclic amino)-derivatives of macrolide antibiotics” (priority 1987, dated 1989)
